{Cy3} = Cy3 dye attached by click chemistry
Columns and labels:
[1] = system: Myzus persicae; assay: Cy3-PNA in artificial diet, aphid survival (Example 13); type: in vivo; details: Myzus persicae second and third instar, final 0.5 to 10 mg/L Cy3-PNA, fed 24 hr, mortality checked every 24 h for 4 days
Procedure: Therapeutic Design: Cy3-PNA Solutions are Formulated with 0, 0.5, 1, 5 or 10 mg/L of Cy3-PNA from Example 11 in 10 mL of 0.5% Sucrose and Essential Amino Acids.
(§1) To prepare for the treatment, aphids are grown in a lab environment and medium. In a climate-controlled room (16 h light photoperiod; 60±5% RH; 20±2° C.), plants are grown in a mixture of vermiculite and perlite and are infested with aphids. To limit maternal effects or health differences between plants, 5-10 adults from different plants are distributed among 10 two-week-old plants, and allowed to multiply to high density for 5-7 days. For experiments, second and third instar aphids are collected from healthy plants and divided into treatments so that each treatment receives approximately the same number of individuals from each of the collection plants.
Wells of a 96-well plate are filled with 200 μl of artificial aphid diet (Febvay et al., Canadian Journal of Zoology 66(11):2449-2453, 1988) and the plate is covered with parafilm to make a feeding sachet. Artificial diet is either mixed with the solution of sterile water with 0.5% sucrose and essential amino acids only as a negative control, or mixed with Cy3-PNA solutions. Cy3-PNA solutions are mixed with artificial diet to obtain final concentrations between 0.5 to 10 mg/L. […]

[2] = system: its target bacterial strains; details: against its target bacterial strains; cited from earlier work
[3] = system: Myzus persicae; assay: Bcr1 dsRNA in artificial diet, aphid survival (Example 9); type: in vivo; details: Myzus persicae second and third instar, final 0.5 to 5 μg/ml dsRNA, fed 24 hr, mortality checked every 24 h for 4 days
Procedure: (§2) Aphids are one of the most important agricultural insect pests. They cause direct feeding damage to crops and serve as vectors of plant viruses. In addition, aphid honeydew promotes the growth of sooty mold and attracts nuisance ants. The use of chemical treatments, unfortunately still widespread, leads to the selection of resistant individuals whose eradication becomes increasingly difficult. Therapeutic design: dsRNA solutions are formulated with 0 (negative control), 0.5, 1, or 5 μg/mL of Bcr1 dsRNA from Example 7 in 10 mL of TE buffer with 0.5% sucrose and essential amino acids.
as §1, with “(16 hr” for “(16 h”, “plants. […]” for “plants.”

[4] = system: Rhopalosiphum maidis; assay: Bcr1 dsRNA in artificial diet, aphid survival (Example 3); type: in vivo; details: Rhopalosiphum maidis second and third instar, final 0.5 to 5 μg/ml dsRNA, fed 24 hr, mortality checked every 24 h for 4 days
Procedure: as §2, with “μg/ml” for “μg/mL”, “2” for “7”
as §1, with “C.), fava bean” for “C.),”, “plants. […]” for “plants.”

Cy3-Gaatgcagctgc (antisense GAATGCAGCTGC; all peptide nucleic acid (PNA), 5' {Cy3}; Cy3 attached via DBCO-azide click chemistry) [Cy3-PNA, antisense PNA against bacteriocyte target gene Bcr1 joined to Cy3 dye through click chemistry]
survival rate of aphids compared to the control treated aphids [1]: decreased

ITSISLCTPGCKTGALMGCNMKTATCHCSIHVSK [nisin]
concentration showing antimicrobial activity [2]: single-digit nanomolar concentration

B1: Bcr1 dsRNA: dsRNA hairpin targeting the Bcr1 gene (ACYPI32128), SEQ ID NO: 93 (nucleic acid, listed as Acyrthosiphon pisum)
chain: AUGAAACUGCUGCAUGGCUUUCUGAUUAUUAUGCUGACCAUGCAUCUGAGCAUUCAGUAUGCGUAUGGCGGCCCGUUUCUGACCAAAUAUCUGUGCGAUCGCGUGUGCCAUAAACUGUGCGGCGAUGAAUUUGUGUGCAGCUGCAUUCAGUAUAAAAGCCUGAAAGGCCUGUGGUUUCCGCAUUGCCCGACCGGCAAAGCGAGCGUGGUGCUGCAUAACUUUCUGACCAGCCCGUUUUUUUUUUCGGGCUGGUCAGAAAGUUAUGCAGCACCACGCUCGCUUUGCCGGUCGGGCAAUGCGGAAACCACAGGCCUUUCAGGCUUUUAUACUGAAUGCAGCUGCACACAAAUUCAUCGCCGCACAGUUUAUGGCACACGCGAUCGCACAGAUAUUUGGUCAGAAACGGGCCGCCAUACGCAUACUGAAUGCUCAGAUGCAUGGUCAGCAUAAUAAUCAGAAAGCCAUGCAGCAGUUUCAU
survival rate of aphids compared to the control treated aphids [3]: decreased | survival rate of aphids compared to the control treated aphids [4]: decreased

Source: patent US11974574B2, “Compositions and related methods for modulating endosymbionts” (Flagship Pioneering Innovations V, Inc., priority 2017, dated 2024)
